Data from ChEMBL document CHEMBL1122862, “Synthesis and antibacterial activity of 2,2'-dithiobis(benzamide) derivatives against Mycobacterium species” (1985).
≈ marks a conversion by molar mass, not a printed value.

Columns and labels:
Assay type in all cases: functional
[1] = tested on: Mycobacterium tuberculosis; test: Antibacterial activity against Mycobacterium tuberculosis H37Rv.
Mycobacterium kansasii = test: Antibacterial activity against Mycobacterium kansasii
[2] = tested on: Mycobacterium intracellulare; test: Antibacterial activity against Mycobacterium intracellular.

| Structure (SMILES) | MIC [1] | MIC (Mycobacterium kansasii) | MIC [2] |
| --- | --- | --- | --- |
| CCCCCC(=O)OCCCNC(=O)c1ccccc1SSc1ccccc1C(=O)NCCCOC(=O)CCCCC | 3.13 µg/mL (≈ 5.07 µM) | 0.39 µg/mL (≈ 0.632 µM) | 12.5 µg/mL (≈ 20.3 µM) |
| O=C1c2ccccc2S(=O)(=O)N1CO | > 100 µg/mL | > 100 µg/mL | 100 µg/mL (≈ 469 µM) |
| CCCCCCCCCCCCCCCCCCNC(=O)c1ccccc1SSc1ccccc1C(=O)NCCCCCCCCCCCCCCCCCC | 100 µg/mL (≈ 124 µM) | > 100 µg/mL | > 100 µg/mL |
| CCCCCCCC(=O)OCCCNC(=O)c1ccccc1SSc1ccccc1C(=O)NCCCOC(=O)CCCCCCC | 0.39 µg/mL (≈ 0.58 µM) | 0.78 µg/mL (≈ 1.16 µM) | 12.5 µg/mL (≈ 18.6 µM) |
| O=C(Nc1c([N+](=O)[O-])ccc2ccccc12)c1ccccc1SSc1ccccc1C(=O)Nc1c([N+](=O)[O-])ccc2ccccc12 | 50 µg/mL (≈ 77.3 µM) | 50 µg/mL (≈ 77.3 µM) | > 100 µg/mL |
| COC(CNC(=O)c1ccccc1SSc1ccccc1C(=O)NCC(OC)OC)OC | 3.13 µg/mL (≈ 6.51 µM) | 12.5 µg/mL (≈ 26 µM) | 12.5 µg/mL (≈ 26 µM) |
| O=C(c1ccccc1SSc1ccccc1C(=O)N1CCN(c2ccccc2)CC1)N1CCN(c2ccccc2)CC1 | 12.5 µg/mL (≈ 21 µM) | 50 µg/mL (≈ 84.1 µM) | 25 µg/mL (≈ 42 µM) |
| O=C(NCCO)c1ccc(Cl)cc1SSc1ccc(Cl)cc1C(=O)NCCO | 6.25 µg/mL (≈ 13.5 µM) | 25 µg/mL (≈ 54.2 µM) | 50 µg/mL (≈ 108 µM) |
| CCCCCCCCCC(=O)OCCCNC(=O)c1ccccc1SSc1ccccc1C(=O)NCCCOC(=O)CCCCCCCCC | 0.39 µg/mL (≈ 0.535 µM) | 0.39 µg/mL (≈ 0.535 µM) | 12.5 µg/mL (≈ 17.1 µM) |
| NC(=O)c1ccccc1SSc1ccccc1C(N)=O | 12.5 µg/mL (≈ 41.1 µM) | 25 µg/mL (≈ 82.1 µM) | 25 µg/mL (≈ 82.1 µM) |
| CCCCCCCCCCCCCCCC(=O)OC(C)CNC(=O)c1ccccc1SSc1ccccc1C(=O)NCC(C)OC(=O)CCCCCCCCCCCCCCC (centres undefined) | 25 µg/mL (≈ 27.9 µM) | > 100 µg/mL | > 100 µg/mL |
| COCCNC(=O)c1ccccc1SSc1ccccc1C(=O)NCCOC | 6.25 µg/mL (≈ 14.9 µM) | 12.5 µg/mL (≈ 29.7 µM) | 12.5 µg/mL (≈ 29.7 µM) |
| O=C(c1ccccc1SSc1ccccc1C(=O)N(c1ccccc1)c1ccccc1)N(c1ccccc1)c1ccccc1 | > 100 µg/mL | > 100 µg/mL | > 100 µg/mL |
| CCC(O)CNC(=O)c1ccccc1SSc1ccccc1C(=O)NCC(O)CC (centres undefined) | 12.5 µg/mL (≈ 27.9 µM) | 12.5 µg/mL (≈ 27.9 µM) | 12.5 µg/mL (≈ 27.9 µM) |
| CC[C@@H](CO)NCCN[C@@H](CC)CO [ETHAMBUTOL] | 0.78 µg/mL (≈ 3.82 µM) | 12.5 µg/mL (≈ 61.2 µM) | 12.5 µg/mL (≈ 61.2 µM) |
| NNC(=O)c1ccncc1 [ISONIAZID] | 0.05 µg/mL (≈ 0.365 µM) | 1.56 µg/mL (≈ 11.4 µM) | 6.25 µg/mL (≈ 45.6 µM) |
| NC[C@H]1O[C@H](O[C@H]2[C@H](O)[C@@H](O[C@H]3O[C@H](CO)[C@@H](O)[C@H](N)[C@H]3O)[C@H](N)C[C@@H]2N)[C@H](O)[C@@H](O)[C@@H]1O [KANAMYCIN] | 3.13 µg/mL (≈ 6.46 µM) | 25 µg/mL (≈ 51.6 µM) | 6.25 µg/mL (≈ 12.9 µM) |
| CO[C@H]1/C=C/O[C@@]2(C)Oc3c(C)c(O)c4c(O)c(c(/C=N/N5CCN(C)CC5)c(O)c4c3C2=O)NC(=O)/C(C)=C\C=C\[C@H](C)[C@H](O)[C@@H](C)[C@@H](O)[C@@H](C)[C@H](OC(C)=O)[C@@H]1C [RIFAMPIN] | 0.05 µg/mL (≈ 0.0608 µM) | 0.05 µg/mL (≈ 0.0608 µM) | 0.2 µg/mL (≈ 0.243 µM) |
